Measurements taken from article PMC7901654, “Bioisosteric Discovery of NPA101.3, a Second-Generation RET/VEGFR2 Inhibitor Optimized for Single-Agent Polypharmacology” (Journal of Medicinal Chemistry, 2020).

How the values were obtained:
NIH3T3 RET/C634Y tumors = format: in vivo
Protocol: In vivo target (RET and VEGFR2) inhibition was studied by treating animals grafted with NIH3T3 RET/C634Y cells at different doses (0.3, 1, or 3 mg/kg/day p.o.) of NPA101.3 for 2 days and then performing Western blot analysis on protein extracts. […] Then, to determine antitumorigenic activity and to better distinguish RET- and VEGFR2-mediated effects, we tested NPA101.3 in nude mice transplanted with NIH3T3 cells transformed by either RET/C634Y or HRAS/G12V. Before tumors appeared, animals were treated daily with NPA101.3 (1.0, 3.0, or 10.0 mg/kg/day) or left untreated. […] Still, VEGFR2 inhibition was detected also in RAS-driven tumors, an effect that might explain the, albeit reduced, effect of the drug on their growth (Figure S13). Importantly, as predicted, no trace of NPA101.3 demethyl metabolites was detected after 1 or 4 h from oral dosing in mice (Figure S14).
Figure 6 Effects of NPA101.3 on in vivo tumor growth. NIH3T3 cells transformed by RET/C634Y or HRAS/G12V were inoculated subcutaneously into nu/nu mice. After 4 days, animals were randomly assigned to receive for the indicated time periods the compound (1.0, 3.0, or 10 mg/kg/day) (24 mice; 8 mice/group for 1, 3, and 10 mg/kg doses) or vehicle (8 mice) by oral gavage. The average size of tumors is reported ± SD.
NPA101.3 was dissolved in 80% H2O, 19.875% Tween 20, and 0.125% xanthan gum. The formulation was stored at room temperature and vortexed prior to administration. NIH3T3 RET/C634Y (200000) or NIH3T3 HRAS/G12V (50000) cells were inoculated subcutaneously into the dorsal portion (both sides) of 6-week-old female BALB/c nu/nu mice (32 mice/cell line) (Jackson Laboratories, Bar Harbor, ME). After 4 days, before tumors had appeared, animals were randomly assigned to receive NPA101.3 (1.0, 3.0, or 10 mg/kg/day) (8 mice/group) or vehicle control (8 mice) by oral gavage. Tumor diameters were measured with caliper every 2–3 days. Tumor volumes (V) were calculated by the rotational ellipsoid formula V = A × B^2/2 (A is the axial diameter, and B is the rotational diameter). […] Animals were fed ad libitum on an autoclaved diet and tap water and maintained at the Dipartimento di Medicina Molecolare e Biotecnologie Mediche Animal Facility. All manipulations were performed while the animals were under isoflurane gas anesthesia. Animal studies were conducted in accordance with Italian regulations for experimentation on animals and approved by the Italian Ministry of Health (Authorization 1023/2015-PR). To compare tumor growth, an unpaired Student’s t test (InStat program, GraphPad Software) was used. P values were statistically significant at the P < 0.05 level. […]

human VEGFR2 = biological target: T1, human VEGFR2 (Homo sapiens, UniProt P35968); experiment: Ligand-induced VEGFR2 autophosphorylation in transfected HEK293 cells; format: cell-based; settings: 2 h, VEGFA 100 ng/mL
T1 construct: expressed in transfected cells; host or cells: HEK293, transient transfection
T1 sequence (P35968 20-1356): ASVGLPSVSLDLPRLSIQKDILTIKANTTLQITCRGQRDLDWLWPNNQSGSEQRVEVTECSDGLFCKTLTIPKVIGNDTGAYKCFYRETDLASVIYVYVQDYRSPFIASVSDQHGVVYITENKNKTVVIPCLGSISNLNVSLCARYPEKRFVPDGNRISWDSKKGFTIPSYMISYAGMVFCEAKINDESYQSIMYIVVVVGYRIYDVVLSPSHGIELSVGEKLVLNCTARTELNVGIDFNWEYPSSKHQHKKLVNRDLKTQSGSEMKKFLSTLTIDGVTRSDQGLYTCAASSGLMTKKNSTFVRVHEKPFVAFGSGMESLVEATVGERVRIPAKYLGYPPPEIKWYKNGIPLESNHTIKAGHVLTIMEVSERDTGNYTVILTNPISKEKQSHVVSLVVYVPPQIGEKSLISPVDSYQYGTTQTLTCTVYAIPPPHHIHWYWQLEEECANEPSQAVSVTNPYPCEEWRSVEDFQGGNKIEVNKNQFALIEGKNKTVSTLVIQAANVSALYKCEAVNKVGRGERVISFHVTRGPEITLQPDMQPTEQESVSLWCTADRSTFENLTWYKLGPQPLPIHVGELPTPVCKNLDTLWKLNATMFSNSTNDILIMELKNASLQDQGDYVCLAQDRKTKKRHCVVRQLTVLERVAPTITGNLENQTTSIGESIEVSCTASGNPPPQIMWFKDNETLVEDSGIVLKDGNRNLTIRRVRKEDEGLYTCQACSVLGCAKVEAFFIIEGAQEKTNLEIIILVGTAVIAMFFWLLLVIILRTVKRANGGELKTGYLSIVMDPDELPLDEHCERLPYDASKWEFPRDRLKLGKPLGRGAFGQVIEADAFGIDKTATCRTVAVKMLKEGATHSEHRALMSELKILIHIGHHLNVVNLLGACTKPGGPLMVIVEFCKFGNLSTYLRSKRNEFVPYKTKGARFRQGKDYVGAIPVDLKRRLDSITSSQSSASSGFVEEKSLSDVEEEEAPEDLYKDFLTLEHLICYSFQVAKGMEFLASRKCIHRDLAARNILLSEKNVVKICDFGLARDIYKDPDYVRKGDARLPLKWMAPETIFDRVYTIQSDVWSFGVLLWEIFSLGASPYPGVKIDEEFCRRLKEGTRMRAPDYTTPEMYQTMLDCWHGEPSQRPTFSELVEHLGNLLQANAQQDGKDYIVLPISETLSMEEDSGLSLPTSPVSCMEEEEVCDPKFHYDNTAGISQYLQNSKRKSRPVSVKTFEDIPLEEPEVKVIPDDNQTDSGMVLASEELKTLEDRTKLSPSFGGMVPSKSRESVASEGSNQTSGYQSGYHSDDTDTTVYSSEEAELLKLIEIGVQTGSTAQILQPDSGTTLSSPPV
Protocol: Fibroblasts transfected with RET/C634R were treated with increasing doses of NPA101.3, ranging from 0.1 to 10.0 nM. RET autophosphorylation was assessed by Western blotting using two different antibodies that can recognize phosphorylated Y905, located in the RET kinase activation loop, or Y1062, a multidocking site involved in RET downstream signaling.[41]
Figure 4 NPA101.3-mediated inhibition of phosphorylation and signaling of oncogenic RET mutants and VEGFR2 in intact cells. Serum-starved RAT1 cells exogenously expressing the (A and B) indicated RET point mutants or (C) NIH3T3 cells exogenously expressing the indicated RET rearranged mutants were treated for 2 h with the indicated concentrations of the compound. Total cell lysates (50 μg) were subjected to immunoblotting with anti-phospho-Y1062 (αp1062) and anti-phospho-Y905 (αp905) RET antibodies. The blots were normalized using the anti-RET (αRET) antibody. (D) HEK293 cells were transiently transfected with human VEGFR2; 36 h after transfection, cells were serum starved for 12 h. The indicated doses of the compound or vehicle (NT) were added for 2 h, and then VEGFA (100 ng/mL) stimulation was applied for 15 min. […]
Protein lysates were prepared according to standard procedures. […] Immune complexes were detected with the enhanced chemiluminescence kit (Amersham Pharmacia Biotech, Little Chalfont, U.K.). […]

CC(C)(C)c1cc(NC(=O)Cc2ccc(-n3cnc4cc(-c5ccc(S(C)(=O)=O)cc5)ccc43)cc2)no1 [NPA101.3]
RET phosphorylation and signaling in NIH3T3 RET/C634Y tumors (NIH3T3 RET/C634Y tumors; 1.0 mg/kg, 3 h after last dose): strong RET phosphorylation and signaling inhibition | tumor formation induced by RET/C634Y-transformed cells (NIH3T3 RET/C634Y tumors; 10 mg/kg/day oral, nu/nu mice, treatment before tumors appeared): completely prevented | rate of growth of RET-driven tumors (NIH3T3 RET/C634Y tumors; lower doses (1.0, 3.0 mg/kg/day) oral): significantly reduced | signs of wasting or toxicity in xenograft mice (NIH3T3 RET/C634Y tumors; mouse, in vivo): No mouse showed signs of wasting or other signs of toxicity | ligand-induced VEGFR2 autophosphorylation (human VEGFR2; 1.0 nM): reduced | inhibition of ligand-induced VEGFR2 autophosphorylation (human VEGFR2; 10.0 nM): virtually total
